Reference: patent US20220088017A1, “COMPOSITIONS AND METHODS FOR TREATING VIRAL INFECTIONS” (priority 2020, published 2022)

System: coronavirus (COVID-19)
Test: Observational case: older coronavirus contact with impending right heart failure treated with statin
Type: in vivo
Settings: person
Description: An older person developed signs and symptoms of vascular inflammation and right heart failure. This included occasional headaches, flashes in vision, general fatigue, irritability, muscle pains, epigastric pain, general abdominal distention, inability to eat and circulatory congestion, salty or blood taste in sputum. […] The impending right heart failure was thought to be secondary to myocarditis, circulatory congestion due to poor blood flow as a result of vascular inflammation and sticky walls of blood vessels. The contact was within 6 hours having intermittent chest pains, sweating, and dizziness. Cardiac arrest was thought to be a possible poor outcome leading to mortality. The medical team discussed interventions necessary with statins, with the intention of reducing blood sticking to blood vessels. […] The patient commenced treatment immediately with good results in 3 days' time. The abdominal swelling which was A sign of right heart failure subsided, abdominal pain reduced and the patient was able to eat with circulatory congestion eased.

[1] = 20 mg daily, with OMEGA 3 based vitamin oil

SMILES: CC(C)c1nc(N(C)S(C)(=O)=O)nc(-c2ccc(F)cc2)c1/C=C/[C@@H](O)C[C@@H](O)CC(=O)O [rosuvastatin]
- right heart failure outcome (coronavirus contact, 20 mg daily for two weeks, concomitantly with OMEGA 3 based vitamin oil daily): prevented this patient from going into right heart failure
- circulation (coronavirus contact, 20 mg daily for two weeks, with OMEGA 3 based vitamin oil): restored circulation
- abdominal swelling (sign of right heart failure) [1]: subsided
- time to good results after start of treatment [1]: 3 days
